Measured values reported in PubChem BioAssay AID1996.
Values after ≈ are worked out from the molar mass of the structure shown.

Conditions: buffer; pH 7.4; 200.0 µM

solubility kinetic | SMILES
> 52.9 µg/mL | Cc1nc2c(ncn2-c2ccccc2)c(=O)n1NC(=O)CN1CCCC1
> 43.7 µg/mL | CCn1cc(S(=O)(=O)N2CCc3ccccc3C2)cn1
5.7 µg/mL (≈ 17 µM) | O=c1[nH]cccc1-c1nc2cc(Cl)ccc2n1Cc1ccccc1
41.2 µg/mL (≈ 137 µM) | Cc1ccc(CNC(=O)C2CC(=O)N(C3CCCC3)C2)cc1 (stereo not drawn)
22.9 µg/mL (≈ 76 µM) | Cc1cc(=O)oc2cc(OCC(=O)NC3CCCC3)ccc12
> 50.6 µg/mL | COc1ccc(NC(=O)CCC(=O)N2CCOCC2)c([N+](=O)[O-])c1
> 52.6 µg/mL | COP(=O)(OC)c1nc(-c2ccc(C)cc2)oc1N1CCCCC1
> 52.2 µg/mL | CC1CCC(C(C)C)C(OCC(O)CN2CCCC(C)C2)C1.Cl (stereo not drawn)
> 52.9 µg/mL | CC(C)(CNCc1ccccc1)NS(=O)(=O)c1ccc(Cl)cc1
5.8 µg/mL (≈ 21 µM) | C=CCNC1=C(Cl)C(=O)N(Cc2ccccc2)C1=O
> 38.7 µg/mL | CN1CCN(Cc2nnc(-c3ccccc3)o2)CC1
45.7 µg/mL (≈ 145 µM) | CCC(=O)Nc1c(-c2ccc3ccccc3c2)nc2ccccn12
24.7 µg/mL (≈ 103 µM) | O=Cc1cccn1-c1nccc(-c2ccco2)n1
8.3 µg/mL (≈ 25.4 µM) | Cc1ccc(/C(N)=N/OC(=O)C(C)c2ccc([N+](=O)[O-])cc2)cc1 (stereo not drawn)
11.1 µg/mL (≈ 41.8 µM) | Cc1c(Cl)cccc1NC(=O)Cc1cccs1
> 40 µg/mL | CCC1CCCCN1C(=S)NC(=O)c1ccco1 (stereo not drawn)
< 0.4 µg/mL | O=C(Nc1ccc(Cl)c([N+](=O)[O-])c1)c1ccc2c(c1)OCCO2
> 51.7 µg/mL | Cc1ccc2cc(/C=N/NC(=O)CN3CCCCC3)c(Cl)nc2c1
46.1 µg/mL (≈ 143 µM) | CCOc1cc(/C=C2\C(=O)ON=C2c2ccccc2)ccc1OC
< 0.2 µg/mL | Cc1cccc(NC(=O)c2cccc(C(=O)Nc3cccc(C)c3)n2)c1
5 µg/mL (≈ 19.9 µM) | Cc1ccccc1NCc1nc2ccccc2n1C
> 47.8 µg/mL | O=C1CCCN1CCCNS(=O)(=O)c1ccc(F)c(F)c1
1 µg/mL (≈ 3.58 µM) | CC(=O)c1ccc(NC(=O)c2cc3ccccc3o2)cc1

solubility kinetic | SMILES
36.4 µg/mL (≈ 115 µM) | COc1cc2c(cc1OC)C(c1ccccc1Cl)N(C)CC2 (stereo not drawn)
> 31.5 µg/mL | COc1cc(OC)nc(/N=C/N(C)C)n1
0.4 µg/mL (≈ 1.16 µM) | Oc1ccccc1N1CCN(C(c2ccccc2)c2ccccc2)CC1
> 44.6 µg/mL | CC1CN(C(=O)CSc2nc(N)cc(N)n2)CC(C)O1 (stereo not drawn)
0.7 µg/mL (≈ 2.36 µM) | Cc1cc(C(=O)Nc2ccc(Br)cc2)cs1
7.2 µg/mL (≈ 20.5 µM) | Cc1ccc(C(=O)Nc2ccc(S(=O)(=O)N3CCCC3)cc2)s1
4.4 µg/mL (≈ 13.6 µM) | COCC(=O)Nc1nc(-c2ccc(-c3ccccc3)cc2)cs1
1.5 µg/mL (≈ 5.18 µM) | COc1ccc(N2C(=O)c3ccccc3S2(=O)=O)cc1
4.1 µg/mL (≈ 8.37 µM) | O=C(COc1cccc(Br)c1)Nc1ccc(Cl)c(S(=O)(=O)N2CCOCC2)c1
39.9 µg/mL (≈ 148 µM) | NC(=O)CC(c1ccccc1)c1ccc2c(c1)OCO2 (stereo not drawn)
> 42.5 µg/mL | O=C(c1cccc(Oc2ccccc2)c1)N1CCOCC1
37 µg/mL (≈ 138 µM) | Cc1c(C(=O)Oc2ccc(Cl)cc2)n(C)oc1=O
2.7 µg/mL (≈ 7.79 µM) | CCN(c1cccc(C)c1)S(=O)(=O)c1ccc2c(c1)oc(=O)n2C
34.9 µg/mL (≈ 105 µM) | Cc1ccc2c(c1)N(Cc1ccc([N+](=O)[O-])cc1)C=NS2(=O)=O
64.9 µg/mL (≈ 150 µM) | Cc1c(Cl)cccc1NC(=S)Nc1ccc(S(=O)(=O)Nc2ncccn2)cc1
> 36.3 µg/mL | CCCNC(=O)c1cccc(Br)c1
> 46.3 µg/mL | CCS(=O)(=O)N1CCc2nc(-c3ccccc3)sc2C1
29.7 µg/mL (≈ 88.8 µM) | COc1cccc(CNC(=O)C(Cc2ccccc2)n2cccc2)c1 (stereo not drawn)
> 47.1 µg/mL | C/C(CC(=O)Nc1cccc(F)c1)=N\NC(=O)c1ccncc1
1.9 µg/mL (≈ 6.92 µM) | CC(NC(=O)Nc1ccc(Cl)cc1)c1ccccc1 (stereo not drawn)
> 39.5 µg/mL | CCCC(=O)Nc1cc2c(cc1C(C)=O)OCCO2
12.8 µg/mL (≈ 41.6 µM) | O=[N+]([O-])c1ccc(S(=O)(=O)NCCc2ccncc2)cc1
> 44.3 µg/mL | O=C(CSc1nncc2ccccc12)Nc1ccccc1

solubility kinetic | SMILES
> 50.7 µg/mL | O=S(=O)(Nc1nc2ccccc2nc1Cl)c1ccc(F)cc1
3.3 µg/mL (≈ 9.93 µM) | Cc1cc2c(cc1S(=O)(=O)N(C)c1ccccc1)NC(=O)CO2
0.7 µg/mL (≈ 2.22 µM) | CC(C)NC(=O)c1ccc(COc2ccc(C(C)(C)C)cc2)o1
> 47.6 µg/mL | CCc1cccc(NC(=O)CCCCCC2NC(=O)NC2C)c1 (stereo not drawn)
> 46.4 µg/mL | CC(OC(=O)COc1ccc(C#N)cc1)C(=O)c1ccccc1 (stereo not drawn)
0.4 µg/mL (≈ 1.26 µM) | Cc1cc(Oc2ccc([N+](=O)[O-])cc2)nc(N2CCOCC2)n1
< 0.2 µg/mL | CCOC(=O)c1cc(C#N)c(Nc2ccc(C)cc2)nc1C(F)(F)F
34.4 µg/mL (≈ 133 µM) | Cc1cc(C)c(C(=O)/C=C/c2cccs2)c(=O)[nH]1
2.3 µg/mL (≈ 6.74 µM) | Cc1cccc(C2C3=C(CCCC3=O)N=C3c4ccccc4C(=O)C32)c1 (stereo not drawn)
> 59.5 µg/mL | Cc1ccc(CN(C)C(=O)c2cc(S(=O)(=O)N3CCOCC3)ccc2F)o1
> 42.4 µg/mL | Cc1csc(NC(=O)CSc2ccccc2F)n1
6.5 µg/mL (≈ 21.6 µM) | S=C(NCC1COc2ccccc2O1)Nc1ccccc1 (stereo not drawn)
7.7 µg/mL (≈ 23.2 µM) | COc1ccc(-c2noc(CSc3nc(N)cc(=O)[nH]3)n2)cc1
> 37.8 µg/mL | O=[N+]([O-])c1ccccc1OCCN1CCOCC1
> 43.4 µg/mL | CC(SCc1ccccc1)C(=O)Nc1ccc(F)cc1 (stereo not drawn)
> 46 µg/mL | O=C(CCC(=O)NC1CCCCC1)NCc1ccc(F)cc1
49.5 µg/mL (≈ 147 µM) | COc1ccc(NC2=C(NC(C)=O)C(=O)c3ccccc3C2=O)cc1
1.9 µg/mL (≈ 6.18 µM) | CC(C)(C)OC(=O)N1CCN(c2ccc([N+](=O)[O-])cc2)CC1
41.6 µg/mL (≈ 148 µM) | Cc1nc2nc(N)nc(OCc3ccccc3)c2nc1C
> 29.1 µg/mL | Nc1nc(-c2ccc(F)cc2)cs1
> 46.7 µg/mL | CC(C)c1c(O)nc(SCC(=O)N2CCCCC2)[nH]c1=O
15.8 µg/mL (≈ 52.8 µM) | Cc1cccc(C)c1OCCNC(=O)OCc1ccccc1
6.2 µg/mL (≈ 17.9 µM) | CC1=C(C(=O)OCCC(C)C)C(c2ccc3c(c2)OCO3)NC(=O)N1 (stereo not drawn)

solubility kinetic | SMILES
> 38.2 µg/mL | CCNc1cc(N2CCOCC2)nc(SC)n1
> 53.6 µg/mL | O=C(O)c1ccc(NCc2nc3ccccc3n2Cc2ccccc2)cc1
> 51.2 µg/mL | CC(=O)Nc1cccc(NC(=O)CSc2nnc3ccccn23)c1
1.8 µg/mL (≈ 8.36 µM) | O=[N+]([O-])c1[nH]cnc1/C=C/c1ccccc1
6.8 µg/mL (≈ 18.6 µM) | O=C(Nc1ccc(S(=O)(=O)N2CCCC2)cc1)c1ccc([N+](=O)[O-])o1
12.3 µg/mL (≈ 25.4 µM) | COc1ccc(C(=O)Nc2cccc(S(=O)(=O)N(C)C)c2)cc1S(=O)(=O)N1CCOCC1
> 68.3 µg/mL | COc1ccc(OC)c(-n2c(SCC(=O)NCC3CCCO3)nc3ccccc3c2=O)c1 (stereo not drawn)
> 43.7 µg/mL | Cc1ccc(C(=O)OCC(=O)N2CC(C)OC(C)C2)cc1 (stereo not drawn)
> 40.9 µg/mL | CN1CCN(c2c(/C=N/O)c3ccccc3n2C)CC1
> 52.6 µg/mL | COc1cc(NC(=O)Nc2cccc(Cl)c2)c(C(=O)O)cc1OC
< 0.6 µg/mL | CCCOc1ccc(Cn2c(=O)oc3ccc(C)cc32)cc1
> 52.3 µg/mL | CC(Nc1cccc(C(=O)NC2CC2)c1)c1nnc(-c2ccccc2)o1 (stereo not drawn)
0.3 µg/mL (≈ 0.879 µM) | CCOC(=O)c1sc2nc(C)nc(NCc3ccccc3)c2c1C
> 47.1 µg/mL | O=C(CSCc1ccc(Br)cc1)N1CCCC1
48.7 µg/mL (≈ 141 µM) | COc1ccc(CCNC(=O)CCNC(=O)c2ccco2)cc1OC
< 0.7 µg/mL | O=C(/C=C/c1ccccc1)OCCN1C(=O)c2ccccc2C1=O
> 39.8 µg/mL | O=C(NCC1CC1)c1cc([N+](=O)[O-])cc([N+](=O)[O-])c1
> 41.5 µg/mL | COC(=O)CCCSc1nccn1-c1ccccc1
36 µg/mL (≈ 138 µM) | Cc1occc1C(=O)Nc1cccc([N+](=O)[O-])c1C
2.7 µg/mL (≈ 7.79 µM) | O=C(CSc1ccccc1)Nc1ccc(N2CCOCC2)c(F)c1
41.3 µg/mL (≈ 128 µM) | CC1CC(C)CN(C(=O)COC(=O)Cc2ccc(Cl)cc2)C1 (stereo not drawn)
> 43.4 µg/mL | CN(C1CCS(=O)(=O)C1)S(=O)(=O)c1ccccc1 (stereo not drawn)
11.3 µg/mL (≈ 32.5 µM) | COc1ccc(CCNS(=O)(=O)c2ccc3[nH]c(=O)[nH]c3c2)cc1

solubility kinetic | SMILES
13 µg/mL (≈ 35.8 µM) | CCN(CC)S(=O)(=O)c1ccc(NC(=S)Nc2ccccc2)cc1
10.9 µg/mL | COc1cccc2[nH]c(C(=O)NCc3ccccc3)cc12.Cl
38.8 µg/mL (≈ 122 µM) | Cc1oc(-c2ccoc2)nc1CN(CC1CCC(=O)N1)C(C)C (stereo not drawn)
> 41.9 µg/mL | COCCNC(=O)COc1cccc2c1OC(C)(C)C2
22.7 µg/mL (≈ 121 µM) | COC(=O)c1ccc2nccnc2c1
54.7 µg/mL (≈ 147 µM) | O=C(NCCc1ccc(Cl)cc1)C1CCCN1C(=O)Nc1ccccc1 (stereo not drawn)
> 51.8 µg/mL | CCOC(=O)c1c(C)[nH]c(C)c1C(=O)COC(=O)c1ccc(O)cc1
> 32.7 µg/mL | Nc1ccc(CCC(=O)N2CCCC2)cc1
> 44.2 µg/mL | CC1CCN(C(=O)CCCC(=O)N2CCC(C)CC2)CC1
4.2 µg/mL (≈ 10.9 µM) | COc1ccc(NC(=O)c2cc(-c3ccncc3)nc3ccccc23)c(OC)c1
> 68.3 µg/mL | CCCn1c(SCC(=O)N(C)C2CCS(=O)(=O)C2)nc2sc3c(c2c1=O)CCC3 (stereo not drawn)
0.9 µg/mL (≈ 2.65 µM) | O=C(Cn1c(=S)[nH]c2ccccc2c1=O)NCCc1ccccc1
8.7 µg/mL (≈ 32.4 µM) | O=C(NCc1ccc2c(c1)CCO2)Nc1ccccc1
49.5 µg/mL (≈ 99.3 µM) | O=C(COC(=O)CCc1ccc(S(=O)(=O)N2CCOCC2)cc1)Nc1ccccc1OC(F)F
> 51.8 µg/mL | CC(=O)Nc1ccc(CN2CCN(CC=C(C)C)C(CCO)C2)cc1 (stereo not drawn)
7.4 µg/mL (≈ 21.5 µM) | Cc1cccc(N2CCN(C(=O)c3ccc4ccccc4c3)CC2C)c1 (stereo not drawn)
> 44.9 µg/mL | Cc1cc(C)nc(SCc2cn3c(C)cc(C)nc3n2)n1
51.8 µg/mL (≈ 134 µM) | CCN(CC(=O)NCc1cccs1)C(=O)c1ccc(-c2ccc(F)cc2)o1
4.5 µg/mL (≈ 14.9 µM) | CC(C)c1nc2sc3c(=S)nc[nH]c3c2c2c1CCC2
18.1 µg/mL (≈ 67.3 µM) | Cc1cc(Cl)ccc1NC(=S)NC1CCCC1
> 44.9 µg/mL | COc1ccc(C2(O)C(=O)Nc3ccc(C)cc32)cc1OC (stereo not drawn)
13.5 µg/mL (≈ 41.9 µM) | CCOC(=O)c1sc(NC(=O)C2=COCCO2)c(C#N)c1C
19.6 µg/mL (≈ 68.4 µM) | Cc1cc(C(=O)NC2CCCCC2)c2cc(F)ccc2n1

SMILES | solubility kinetic
CC1CN=C(NCCc2ccccc2)S1 (stereo not drawn) | > 33 µg/mL
CCCCCn1c(=O)c(C(=O)Nc2ccccc2N)c(O)c2ccccc21 | < 0.3 µg/mL
O=c1c2ccc(Cl)cc2[nH]c(=S)n1-c1cccnc1 | 10.8 µg/mL (≈ 37.3 µM)
